This note sets out measurements from US20260207563A1, “UREA COMPOUNDS AS ACTIVATORS OF POTASSIUM CHANNELS KV7.2/7.3 USEFUL IN THE TREATMENT OF CNS AND PNS DISORDERS” (ANGELINI PHARMA S.P.A., priority 2022, published 2026).

What all share (assay type): cell-based
Experiment [1] deals with T1, heteromeric KV7.2/KV7.3 channels (KCNQ2, KCNQ3) (Homo sapiens, UniProt O43525+O43526).
T1 construct: expressed in transfected cells; host or cells: CHO-K1
In words: Automated patch-clamp (Sophion Qube 384) potency assay against KV7.2/KV7.3 channels. The following applies: CHO-K1/Kv7.2/Kv7.3 cells; for EC50: EC50 from concentration-response of shift in Vhalf, 10 concentrations up to 30 μM, read-out: Kv7.2/7.3 EC50; for Kv7.2/7.3 ΔV1/2: maximal shift in the Vhalf from the top of the curve. The text has this:
Assessment of In Vitro Potency Against KV7.2/KV7.3 Channels
An automated patch-clamp assay on the Sophion Qube 384 was developed for potency testing to identify small molecule activators of heteromeric KV7.2/KV7.3 channels (KCNQ2, Uniprot ID 043526; KCNQ3, Uniprot 043525).
The cell line used was a stably transfected CHO-K1 cell line with constitutive KV7.2/KV7.3 expression.
CHO-K1/Kv7.2/Kv7.3 cells were maintained in the following culture media: • DMEM/F-12 with GlutaMAX™ (Gibco 31331-028), • 10% Fetal clone 2 serum (Perbio Science SH30066.03), • 1 mg/ml Geneticin™ selective antibiotic (G418, Invitrogen 1013027), and • 5 μg/ml BlasticidinS HCl (Invivogen Ant-bl-5).
On the day of the experiment, cells were resuspended in serum free media, counted and diluted to a final concentration of 3.5×10^6 cells per ml of media.
Cells were then placed onto the Sophion Qube 384 and rested for a minimum of 1 hour.
The following solutions were used for recording: • extracellular solution (in mM): 145 NaCl, 4 KCl, 1 MgCl2, 2 CaCl2), 10 HEPES, 10 glucose, pH 7.4, 315-320 mOsm. • intracellular solution (in mM): 120 KCl, 5.74 CaCl2), 1.75 MgCl2, 10 EGTA, 10 HEPES, 5 Na2ATP, pH 7.2, adjusted to 315 mOsm with sucrose.
After establishing the whole-cell configuration, cells were held at −80 mV throughout the experiment. A current-voltage (I-V) protocol stepping from −100 to +20 mV for 1 second was applied to measure Kv7.2/Kv7.3 currents, each step was followed by a 200 ms pulse to 0 mV to measure the tail currents. From the I-V protocol a Boltzmann fit was applied to generate activation curves. Data were sampled at 25 kHz and filtered at 5 kHz (Bessel). Data were produced using multihole QChips. The I-V protocol was applied several times to establish the response in control conditions (typically 0.3% DMSO) and in the presence of the test compound.
Data were reviewed in Sophion Analyser version 6.5.2 (Sophion Bioscience) for recording quality and filters were applied to remove any failed wells. Leak subtraction was applied to all recordings. Data filters for multihole QChips were typically: seal resistance>4 MΩ, capacitance >20 pF, baseline VHalf between 0 to −40 mV, baseline holding current between −2 to 2 nA, baseline steady state current at 20 mV >4 nA unless otherwise stated.
(§1) Analysis of Data for Assessment of Potency
(§2) 10 concentrations of test compounds were applied to individual wells in quadruplicate to assess potency as a 1 in 3 dilution series from the maximal concentration of 30 μM. The average shift in the voltage for half activation (Vhalf) for each concentration was used to generate concentration-response curves fitted with a 4-parameter logistic model to estimate the EC50 from the point of inflection of the curve and the maximal shift in the Vhalf from the top of the curve.
(§3) The lower the EC50 value, the higher the potency of the analyzed compound. The selectivity criteria is assigned on the basis of the maximal shift in the Vhalf at 30 μM. […] In Table 3, ND means that selectivity was not determined.
In general terms: Patch clamp records ionic current or voltage across a cell membrane.

Experiment [2] addresses T2, homomeric KV7.4 channel (KCNQ4) (Homo sapiens, UniProt P56696).
T2 construct: host or cells: CHO-K1
As to the kind of experiment: Automated patch-clamp (Qube) counter-screening assay against KV7.4 channel. To be noted: CHO-K1 cells expressing KV7.4; class by maximal shift in the Vhalf at 30 μM.
Excerpt: Assessment of In Vitro Potency Against KV7.4 Channels
A counter-screening assay was also developed on the Qube against the homomeric KV7.4 channel (KCNQ4, Uniprot ID P56696). The cell line used was a stably transfected CHO-K1 with constitutive KV7.4 expression supplied by Charles River Laboratories.
CHO-K1 cells stably expressing KV7.4 channels were maintained in the following culture media: • Hams F-12 with GlutaMAX™ (Life Technologies 31765027), • 10% Fetal clone 2 serum (Perbio Science SH30066.03), and • 250 μg/ml Geneticin™ selective antibiotic (G418, Invitrogen 1013-027).
(§4) Cell maintenance, preparation, recording conditions and voltage protocols were all identical to those above.
as §1, §2, §3

The target in experiment [3] is T3, heteromeric KV7.3/KV7.5 channel (KCNQ3, KCNQ5) (Homo sapiens, UniProt O43525+Q9NR82).
T3 construct: host or cells: HEK293
As to the kind of experiment: Automated patch-clamp counter-screening against KV7.3/KV7.5 channel. To be noted: HEK293 cells expressing Kv7.3/KV7.5; class by maximal shift in the Vhalf at 30 μM. As for the experimental part: Assessment of in vitro potency against KV7.3/KV7.5 channels
Counter-screening was also carried out against the heteromeric KV7.3/KV7.5 channel (KCNQ3, Uniprot ID 043525; KCNQ5, Uniprot ID Q9NR82). The cell line used was a stably transfected HEK293 cell line with constitutive Kv7.3 expression and tetracycline inducible KV7.5 expression supplied by Charles River Laboratories.
Cells were maintained in the following culture media: • DMEM/F-12 with GlutaMAX™ (Life Technologies 31331-028), • 10% Tet Systems FCS (Clonetech 631106), • 500 μg/ml Geneticin™ selective antibiotic (G418, Invitrogen 1013-027), • 5 μg/ml Blasticidin S HCl (InvivoGen ant-bl-5), and • 100 μg/ml Zeocin (InvivoGen: ant-zn-5).
as §4, §1, §2, §3

As for `O=C(NCc1ccnc(C(O)C(F)(F)F)c1)N[C@@H]1CCc2ccc(F)cc21` (stereo partly drawn) [Compound 113], in experiment [1], the EC50 is 7.64 µM and the “Kv7.2/7.3 ΔV1/2” value worked out at 27.22 mV. Moreover, the Kv7.4 selectivity criteria result in experiment [2] is “A (Selective compounds showed Kv7.4 and/or Kv7.3/7.5 ΔV1/2 equal to or lower than 15 mV (letter A in table 3))”. Further, in experiment [3], the Kv7.3/7.5 selectivity criteria result is recorded as “B (Non-selective compounds showed Kv7.4 and/or Kv7.3/7.5 ΔV1/2 higher than 15 mV (letter B in table 3))”.

On to `O=C(NCc1cccc(F)c1)NCc1ccnc(OCc2ccccc2)c1` [Compound 2, 1-((2-(Benzyloxy)pyridin-4-yl)methyl)-3-(3-fluorobenzyl)urea], for which, in experiment [1], the EC50 was found to be 0.966 µM and the “Kv7.2/7.3 ΔV1/2” value turned out to be 16.51 mV. In addition, the Kv7.4 selectivity criteria result in experiment [2] is on record as “A (Selective compounds showed Kv7.4 and/or Kv7.3/7.5 ΔV1/2 equal to or lower than 15 mV (letter A in table 3))”. Besides, the Kv7.3/7.5 selectivity criteria result in experiment [3] was “A (Selective compounds showed Kv7.4 and/or Kv7.3/7.5 ΔV1/2 equal to or lower than 15 mV (letter A in table 3))”.

Turning to `O=C(NCc1ccnc(OCC(F)(F)F)c1)N[C@@H]1CCc2c(Cl)cccc21` [Compound 118], in experiment [1], the EC50 stood at 1.55 µM and the “Kv7.2/7.3 ΔV1/2” value is reported as 41.97 mV. The Kv7.4 selectivity criteria result in experiment [2] is given as “B (Non-selective compounds showed Kv7.4 and/or Kv7.3/7.5 ΔV1/2 higher than 15 mV (letter B in table 3))”. Also, the Kv7.3/7.5 selectivity criteria result in experiment [3] is “B (Non-selective compounds showed Kv7.4 and/or Kv7.3/7.5 ΔV1/2 higher than 15 mV (letter B in table 3))”.

On to `O=C(NCc1ccnc(OCC(F)(F)F)c1)NCC1Cc2ccccc2C1` [Compound 145], for which, in experiment [1], the EC50 turned out to be 1.61 µM and the “Kv7.2/7.3 ΔV1/2” value is listed as 23.71 mV. Further, the Kv7.4 selectivity criteria result in experiment [2] is reported as “A (Selective compounds showed Kv7.4 and/or Kv7.3/7.5 ΔV1/2 equal to or lower than 15 mV (letter A in table 3))”. Further, the Kv7.3/7.5 selectivity criteria result in experiment [3] is reported as “A (Selective compounds showed Kv7.4 and/or Kv7.3/7.5 ΔV1/2 equal to or lower than 15 mV (letter A in table 3))”.

For `CC(C)(OCCNC(=O)NCc1ccnc(OCC(F)(F)F)c1)C(F)(F)F` [Compound 48, 1-(2-((1,1,1-Trifluoro-2-methylpropan-2-yl)oxy)ethyl)-3-((2-(2,2,2-trifluoroethoxy)pyridin-4-yl)methyl)urea], in experiment [1], the EC50 came to 2.41 µM and the “Kv7.2/7.3 ΔV1/2” value was determined as 22.74 mV. Besides, the Kv7.4 selectivity criteria entry in experiment [2] was “A (Selective compounds showed Kv7.4 and/or Kv7.3/7.5 ΔV1/2 equal to or lower than 15 mV (letter A in table 3))”. Further, the Kv7.3/7.5 selectivity criteria result in experiment [3] was “A (Selective compounds showed Kv7.4 and/or Kv7.3/7.5 ΔV1/2 equal to or lower than 15 mV (letter A in table 3))”.

`O=C(NCc1ccnc(OCC(F)(F)F)c1)N[C@@H]1CCc2ccc(F)cc21` [Compound 86, (R)-1-(6-fluoro-2,3-dihydro-1H-inden-1-yl)-3-((2-(2,2,2-trifluoroethoxy)pyridin-4-yl)methyl)urea]: in experiment [1], the EC50 amounted to 1.35 µM and the “Kv7.2/7.3 ΔV1/2” value worked out at 38.89 mV. The Kv7.4 selectivity criteria entry in experiment [2] is given as “A (Selective compounds showed Kv7.4 and/or Kv7.3/7.5 ΔV1/2 equal to or lower than 15 mV (letter A in table 3))”. Moreover, the Kv7.3/7.5 selectivity criteria entry in experiment [3] is “A (Selective compounds showed Kv7.4 and/or Kv7.3/7.5 ΔV1/2 equal to or lower than 15 mV (letter A in table 3))”.

Regarding `O=C(NCc1ccnc(OCC(F)(F)F)c1)N[C@@H]1CCCc2ccccc21` [Compound 156], in experiment [1], the EC50 came to 1.85 µM and the “Kv7.2/7.3 ΔV1/2” value worked out at 55.46 mV. Further, in experiment [2], the Kv7.4 selectivity criteria result is given as “B (Non-selective compounds showed Kv7.4 and/or Kv7.3/7.5 ΔV1/2 higher than 15 mV (letter B in table 3))”. Further, the Kv7.3/7.5 selectivity criteria entry in experiment [3] is listed as “B (Non-selective compounds showed Kv7.4 and/or Kv7.3/7.5 ΔV1/2 higher than 15 mV (letter B in table 3))”.

Take `O=C(NCc1ccnc(OCC(F)(F)F)c1)NCC1CCC(F)(F)CC1` [Compound 70, 1-((4,4-Difluorocyclohexyl)methyl)-3-((2-(2,2,2-trifluoroethoxy)pyridin-4-yl)methyl)urea]: in experiment [1], the EC50 came to 0.975 µM and the “Kv7.2/7.3 ΔV1/2” value was 26.04 mV. For the same compound, the Kv7.4 selectivity criteria entry in experiment [2] is recorded as “A (Selective compounds showed Kv7.4 and/or Kv7.3/7.5 ΔV1/2 equal to or lower than 15 mV (letter A in table 3))”. The Kv7.3/7.5 selectivity criteria result in experiment [3] was “A (Selective compounds showed Kv7.4 and/or Kv7.3/7.5 ΔV1/2 equal to or lower than 15 mV (letter A in table 3))”.

As to `O=C(NCc1ccnc(OCC(F)(F)F)c1)Nc1cccc2c1OCC2` [Compound 131], in experiment [1], the EC50 amounted to 0.756 µM and the “Kv7.2/7.3 ΔV1/2” value worked out at 22.47 mV. For the same compound, the Kv7.4 selectivity criteria entry in experiment [2] is reported as “B (Non-selective compounds showed Kv7.4 and/or Kv7.3/7.5 ΔV1/2 higher than 15 mV (letter B in table 3))”. In experiment [3], the Kv7.3/7.5 selectivity criteria result is recorded as “A (Selective compounds showed Kv7.4 and/or Kv7.3/7.5 ΔV1/2 equal to or lower than 15 mV (letter A in table 3))”.

As for `O=C(NCCC1(C(F)(F)F)CC1)NCc1ccnc(OCC(F)(F)F)n1` [Compound 49, 1-((2-(2,2,2-Trifluoroethoxy)pyrimidin-4-yl)methyl)-3-(2-(1-(trifluoromethyl)cyclopropyl)ethyl)urea], in experiment [1], the EC50 worked out at 4.23 µM and the “Kv7.2/7.3 ΔV1/2” value stood at 23.89 mV. Also, in experiment [2], the Kv7.4 selectivity criteria entry is “A (Selective compounds showed Kv7.4 and/or Kv7.3/7.5 ΔV1/2 equal to or lower than 15 mV (letter A in table 3))”. Besides, in experiment [3], the Kv7.3/7.5 selectivity criteria entry was “A (Selective compounds showed Kv7.4 and/or Kv7.3/7.5 ΔV1/2 equal to or lower than 15 mV (letter A in table 3))”.

With `O=C(NCCC1(C(F)(F)F)CC1)NCc1ccnc(C(F)(F)F)c1` [Compound 69, 1-(2-(1-(Trifluoromethyl)cyclopropyl)ethyl)-3-((2-(trifluoromethyl)pyridin-4-yl)methyl)urea], in experiment [1], the EC50 turned out to be 4.28 µM and the “Kv7.2/7.3 ΔV1/2” value came out at 23.15 mV. Also, in experiment [2], the Kv7.4 selectivity criteria entry is on record as “A (Selective compounds showed Kv7.4 and/or Kv7.3/7.5 ΔV1/2 equal to or lower than 15 mV (letter A in table 3))”. Also, the Kv7.3/7.5 selectivity criteria result in experiment [3] was “A (Selective compounds showed Kv7.4 and/or Kv7.3/7.5 ΔV1/2 equal to or lower than 15 mV (letter A in table 3))”.

With `CC1(NC(=O)NCc2ccnc(OCC(F)(F)F)c2)Cc2ccccc2C1` [Compound 114], in experiment [1], the EC50 stood at 0.672 µM and the “Kv7.2/7.3 ΔV1/2” value turned out to be 32.56 mV. Further, the Kv7.4 selectivity criteria result in experiment [2] is given as “A (Selective compounds showed Kv7.4 and/or Kv7.3/7.5 ΔV1/2 equal to or lower than 15 mV (letter A in table 3))”. The Kv7.3/7.5 selectivity criteria entry in experiment [3] is listed as “B (Non-selective compounds showed Kv7.4 and/or Kv7.3/7.5 ΔV1/2 higher than 15 mV (letter B in table 3))”.
